Test results reported in patent publication US5444042A, “Method of treatment of neurodegeneration with calpain inhibitors” (Cortex Pharmaceuticals, priority 1994, dated 1995).

How the values were obtained:
[1] = molecular target: T1, Calpain I (Homo sapiens, UniProt P07384); assay: Calpain I 14C-methylated casein proteolysis (Table 1A); format: biochemical
T1 sequence (P07384 1-714): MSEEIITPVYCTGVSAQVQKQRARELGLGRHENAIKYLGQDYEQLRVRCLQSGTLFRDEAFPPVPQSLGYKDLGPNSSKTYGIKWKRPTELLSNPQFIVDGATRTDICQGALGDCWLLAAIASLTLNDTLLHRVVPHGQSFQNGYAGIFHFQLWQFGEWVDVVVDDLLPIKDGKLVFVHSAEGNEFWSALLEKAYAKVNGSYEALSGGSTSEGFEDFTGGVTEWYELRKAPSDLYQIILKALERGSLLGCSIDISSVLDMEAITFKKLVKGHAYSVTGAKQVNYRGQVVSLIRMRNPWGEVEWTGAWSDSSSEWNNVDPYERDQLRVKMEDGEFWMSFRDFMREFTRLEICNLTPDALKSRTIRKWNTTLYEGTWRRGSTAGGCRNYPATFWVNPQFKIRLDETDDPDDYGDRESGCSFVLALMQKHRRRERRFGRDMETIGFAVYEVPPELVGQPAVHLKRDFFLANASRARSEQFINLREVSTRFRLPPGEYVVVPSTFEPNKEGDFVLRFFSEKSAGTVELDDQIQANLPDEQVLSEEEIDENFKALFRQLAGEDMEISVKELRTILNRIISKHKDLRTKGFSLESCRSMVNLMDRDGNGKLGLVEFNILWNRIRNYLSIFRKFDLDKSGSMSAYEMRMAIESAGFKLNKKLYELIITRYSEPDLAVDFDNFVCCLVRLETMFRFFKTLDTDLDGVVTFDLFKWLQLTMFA
T1 sequence (P04632 1-268 partner): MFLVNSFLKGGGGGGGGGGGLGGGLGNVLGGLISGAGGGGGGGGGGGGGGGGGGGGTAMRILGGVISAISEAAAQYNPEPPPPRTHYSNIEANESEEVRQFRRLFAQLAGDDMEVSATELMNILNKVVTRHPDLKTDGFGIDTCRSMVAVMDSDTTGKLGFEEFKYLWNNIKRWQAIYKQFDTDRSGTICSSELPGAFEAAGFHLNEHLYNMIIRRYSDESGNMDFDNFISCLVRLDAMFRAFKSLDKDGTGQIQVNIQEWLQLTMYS
Method: The isocoumarins are irreversible inhibitors of Calpain. We obtained IC50 values for a variety of these Calpain Inhibitors as a kinetic analysis of these compounds.
Calpains I and II were purified by the method of (Yoshimura, et al. 1983). (Kitahara 1984) provides an alternative purification scheme. Calpain II may alternatively be purchased from Sigma Chemical Co. as "Calcium Activated Neutral Protease." In this assay, purified Calpain was incubated with ^14 C-methylated casein in the presence of various Heterocyclic Compounds and the amount of acid-soluble radioactivity released by the action of Calpain was measured.

[2] = molecular target: Chym (Bos taurus, UniProt P00766); assay: Chym KI (Table 1B(ii)); format: biochemical
Text: (§1) We tested the ability of an additional group of Peptide Keto-Compounds to inhibit several proteases in order to evaluate their specificity for Calpain.

[3] = molecular target: PP Elastase (Sus scrofa, UniProt P00772); assay: PP Elastase KI (Table 1B(ii)); format: biochemical
Chain of PP Elastase (P00772 27-266): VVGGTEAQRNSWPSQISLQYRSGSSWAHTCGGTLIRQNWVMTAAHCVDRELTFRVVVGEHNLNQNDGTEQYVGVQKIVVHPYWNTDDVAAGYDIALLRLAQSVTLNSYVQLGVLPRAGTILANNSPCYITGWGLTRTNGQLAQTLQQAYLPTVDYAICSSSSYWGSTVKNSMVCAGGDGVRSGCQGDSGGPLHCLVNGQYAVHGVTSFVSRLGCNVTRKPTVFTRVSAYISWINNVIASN
Text: as §1

[4] = molecular target: Cathepsin B (Bos taurus, UniProt P07688); assay: Cathepsin B KI (Table 1B(ii)); format: biochemical; settings: read-out: KI CathB
Text: as §1

[5] = molecular target: T2, Papain (Carica papaya, UniProt P00784); assay: Papain KI (Table 1B(ii)); format: biochemical
T2 sequence (P00784 134-345): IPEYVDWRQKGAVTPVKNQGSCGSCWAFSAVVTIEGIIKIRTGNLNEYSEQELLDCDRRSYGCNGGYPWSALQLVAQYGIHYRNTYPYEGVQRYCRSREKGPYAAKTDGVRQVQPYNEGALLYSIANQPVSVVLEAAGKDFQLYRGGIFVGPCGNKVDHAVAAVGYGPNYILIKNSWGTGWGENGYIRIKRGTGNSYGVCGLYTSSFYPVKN
Text: as §1

[6] = molecular target: T1, Calpain I; assay: Calpain I KI (Table 1B(ii)); format: biochemical; settings: Table 1B(ii)
Text: as §1

[7] = system: Calpain within platelets; assay: Platelet membrane permeation assay, spectrin proteolysis (Examples 4A, 4B); format: cell-based, rat; settings: for inhibition of Calpain within platelets / platelet assay, semi-quantitative: 100 μM; for inhibition of Calpain within platelets: A23187 1 μM; for IC50: concentration at which 50% of the Calpain activation present in controls occurred
Method: Platelets were isolated by a modification of the method of Ferrell and Martin, J Biol. Chem., 264:20723-20729 (1989), the disclosure of which is hereby incorporated by reference. Blood (15-20 ml) was drawn from male Sprague-Dawley rats into 100 mM EDTA-citrate containing 10 units heparin, and centrifuged 30 minutes at 1600 rpm at room temperature. The plasma was resuspended in 15 ml buffer 1 (136 mM NaCl, 2.7 mM KCl, 0.42 mM NaH2 PO4, 12 mM NaHCO3, 2 mM MgCl2, 2 mg/ml BSA (Sigma), 5.6 mM glucose, 22 mM Na3 Citrate pH 6.5) and platelets were isolated at 2200 rpm at room temperature of 25 minutes. Platelets were resuspended to 10^7 cells/ml in buffer 2 (136 mM NaCl, 2.7 mM KCl, 0.42 NaH2 PO4, 12 mM NaHCO3, 2 mM MgCl, 1 mg/ml BSA, 5.6 mM glucose, 20 mM HEPES pH 7.4) and allowed to "rest" for a minimum of 10 minutes at room temperature before use.
Platelets were incubated for 5 minutes in the presence of inhibitor. In order to provide sufficient intracellular calcium to activate Calpain, the calcium ionophore A23187 was added to a final concentration of 1 μM. After a further 5 minute incubation, the platelets were harvested by centrifugation (1 min 10,000×g) and resuspended in 10% sodium dodecyl sulfate, 10 mM Tris pH=8.0, 5% β-mercaptoethanol, 0.02% bromophenol blue, and heated to 95° C. for 5 min. Samples were subjected to SDS-PAGE on 6% mini gels and transferred to nitrocellulose (Schleicher and Schuell BAS3) for 2 hours at 100 mA/gel in an LKB Novablot. Filters were blocked for 10 minutes in 0.25% gelatin, 1% BSA, 0.25% Triton X100, 0.9% NaCl, 10 mM Tris-Cl pH 7.5, incubated overnight in the same solution containing antibody to rat spectrin, washed 3×10 minutes with 10 mM Tris-Cl pH 7.5, 0.5 % Triton X100, incubated 4 hours in wash buffer plus alkaline phosphatase conjugated goat anti-rabbit antibody (Biorad), and washed as above. Filters were developed using the Biorad AP conjugate substrate kit. Spectrin immunoreactivity on the filters was quantitated by densitometry.

[8] = molecular target: Calpain II; assay: Calpain II KI (Table 1B(ii)); format: biochemical
Text: as §1

[9] = Stability in plasma; format: in vitro ADME; settings: unit assumed
Text: (§2) We determined the haft-life of several Peptide Keto-Compounds in both plasma and liver homogenates.

[10] = Stability in liver homogenates; format: in vitro ADME; settings: unit assumed
Text: as §2

[11] = system: Calpain in crude brain extracts; assay: Ca2+-stimulated spectrin proteolysis in crude brain extracts (Example 2); format: biochemical; settings: 100 μM
Method: The activity of Calpain in crude brain extracts was measured by examining the Ca^2+ -stimulated proteolysis of the endogenous substrate spectrin. Brain tissue was homogenized in 10 mM Tris pH=7.4, 0.32M sucrose, 1 mM EGTA, 1 mM dithiothreitol and the nuclei and debris removed by low speed centrifugation. […] Proteolysis of spectrin was evaluated by western blot as described by Seubert, et at. (Brain Research, 459:226-232, 1988), the disclosure of which is hereby incorporated by reference. Briefly, a known quantity of a spectrin-containing sample treated with Calpain is separated by SDS-PAGE and immunoblotted with anti-spectrin antibody. The amount of spectrin immunoreactivity found corresponding to the characteristic BDP's is indicative of the amount of […] activity present in the sample. An examplary method for quantitating BDP's is to assay Spectrin BDP's by homogenizing brain parts in 20 mM Tris pH=7.2, 0.32M sucrose, 50 μM Ac-Leu-Leu-nLeu-H on ice. Homogenates are then mixed 1:1 with 10% SDS, 5% β-mercaptoethanol, 10% glycerol, 10 mM Tris pH=8.0, 0.5% bromophenolblue, heated to 95° C., and subjected to electrophoresis in 41/2% polyacrylamide gels. The proteins in the gels are transferred to nitrocellulose and the spectrin and BDP's detected using a rabbit polyclonal anti-spectrin antibody and established immunodetection methods. The amount of spectrin and BDP's in each sample can be quantitated by densitrometric scanning of the developed nitrocellulose.

IC50 [1] | Ki [2] | Ki [3] | Ki [4] | Ki [8] | t1/2 plasma [9] | t1/2 liver [10] | IC50 [7] | Compound | Ki [5] | Ki [6] | inhibition of Calpain within platelets [7] | platelet assay, semi-quantitative [7] | inhibition of spectrin proteolysis in crude brain extracts [11]
 | > 300 µM |  | 2 µM | 0.35 µM | > 1 h | > 1 h | 1.5 µM | CCC(NC(=O)C(CC(C)C)NC(=O)OCc1ccccc1)C(=O)C(=O)NCc1ccccc1 (stereo not drawn) [Z-Leu-Abu-CONHBz, Z-Leu-Abu-CONH-Bzl] |  |  |  |  | 
 | > 300 µM | 5 µM | 13 µM |  | > 1 h | > 1 h | 2 µM | CCCCNC(=O)C(=O)C(CC)NC(=O)C(CC(C)C)NC(=O)OCc1ccccc1 (stereo not drawn) [Z-Leu-Abu-CONHnBu, Z-Leu-Abu-CONH-nBu] |  | 0.2 µM |  |  | 
 | > 300 µM | 2 µM | 8 µM | 0.25 µM | > 1 h | > 1 h | 70 µM | CCCNC(=O)C(=O)[C@H](CC)NC(=O)[C@H](CC(C)C)NC(=O)OCc1ccccc1 [Z-Leu-Abu-CONHnPr, Z-Leu-Abu-CONH-nPr] |  |  |  |  | 
 | > 150 µM | > 150 µM | 1.5 µM | 0.022 µM | > 1 h | > 1 h | 8 µM | CCC(NC(=O)C(CC(C)C)NC(=O)OCc1ccccc1)C(=O)C(=O)O (stereo not drawn) [Z-Leu-Abu-COOH] |  | 0.075 µM | significant inhibition |  | 
 | 8 µM | > 100 µM | 3 µM | 0.028 µM | > 1 h | > 1 h | 38 µM | CCCCNC(=O)C(=O)C(Cc1ccccc1)NC(=O)C(CC(C)C)NC(=O)OCc1ccccc1 (stereo not drawn) [Z-Leu-Phe-CONHnBu, Z-Leu-Phe-CONH-nBu] |  |  |  |  | 
 | 18 µM | > 300 µM | 3 µM | 0.05 µM | > 1 h | > 1 h | 24 µM | CCCNC(=O)C(=O)C(Cc1ccccc1)NC(=O)C(CC(C)C)NC(=O)OCc1ccccc1 (stereo not drawn) [Z-Leu-Phe-CONHnPr, Z-Leu-Phe-CONH-nPr] |  | 15 µM |  |  | 
 | 76 µM | > 150 µM | 4.5 µM | 0.0057 µM | > 1 h | > 1 h | 6.5 µM | CC(C)CC(NC(=O)OCc1ccccc1)C(=O)NC(Cc1ccccc1)C(=O)C(=O)O (stereo not drawn) [Z-Leu-Phe-COOH] |  | 0.0085 µM | significant inhibition |  | 

The next lines start with the compound.

Compound | IC50 [1] | Ki [2] | Ki [3] | Ki [4] | Ki [8] | t1/2 plasma [9] | t1/2 liver [10] | IC50 [7] | Ki [5] | Ki [6] | inhibition of Calpain within platelets [7] | platelet assay, semi-quantitative [7] | inhibition of spectrin proteolysis in crude brain extracts [11]
N=C(N)SCCOc1oc(=O)c2cc(NC(=O)Cc3ccccc3)ccc2c1Cl [PhCH2 CONH-CiTEtOIC, 7-(phenylacetylamino)-4-chloro-3-(2-isothiureidoethoxy)isocoumarin] | 30 µM |  |  |  |  |  |  |  |  |  |  |  | 
CCOC(=O)C(=O)C(Cc1ccc(Cl)cc1)NC(=O)C(CC(C)C)NC(=O)OCc1ccccc1 (centres unmarked) [Z-Leu-4-Cl-Phe-COOEt] |  | 0.9 µM | > 100 µM | 50 µM | 0.4 µM |  |  |  | 150 µM | < 4 µM | significant inhibition | + | 
CCCCOC(=O)C(=O)C(CC)NC(=O)C(CC(C)C)NC(=O)OCc1ccccc1 (stereo not drawn) [Z-Leu-Abu-COOnBu, Z-Leu-Abu-CO2 Bu] |  | > 100 µM | 25 µM | 4 µM |  |  |  | 28 µM | 10 µM |  | significant inhibition |  | 
CCOC(=O)C(=O)[C@H](Cc1ccccc1)NC(=O)[C@H](CC(C)C)NC(=O)[C@H](CC(C)C)NC(=O)OCc1ccccc1 [Z-Leu-Leu-Phe-COOEt] |  | 0.26 µM | > 100 µM | 42 µM | 1.9 µM |  |  |  | 15 µM | 1.4 µM | significant inhibition | ++ | 
CC(C)C[C@H](NC(=O)OCc1ccccc1)C(=O)N[C@@H](Cc1ccccc1)C(=O)C(=O)OCc1ccccc1 [Z-Leu-Phe-COOBz, Z-Leu-Phe-CO2 Bzl] |  | 1.6 µM | > 100 µM | 45 µM | 1.6 µM | 0.0317 h |  |  | 45 µM | 3.4 µM | significant inhibition | ++ | 
Z-Leu-Met-CO2 Et [Z-Leu-Met-COOEt] |  | 1.75 µM | > 100 µM | 55 µM | 1.5 µM | 0.133 h |  |  | 140 µM | 1 µM | significant inhibition | + | significant inhibition
